{"source": "patent US20180207190A1", "about": "“COMPOSITION CONTAINING NAD FOR PREVENTING AND TREATING OBESITY OR IMPAIRED GLUCOSE TOLERANCE” (UNIVERSITY OF ULSAN FOUNDATION FOR INDUSTRY COOPERATION, priority 2015, published 2018)", "key": {"HFD-fed obese mice [1]": {"system": "HFD-fed obese mice", "test": "Chronic IP injection for 4 weeks: body weight and side effects in ND-fed and HFD-fed (diet-induced obesity) mice", "format": "in vivo, mouse", "conditions": "for body weight vs saline-injected group: NAD+ 0.3 mg/kg/day IP once a day for 4 weeks, 0.3 mg/kg/day", "description": "(§1) Mature male C57BL/6 mice were purchased from ORIENT BIO Inc. (Gyeonggi-do, Republic of Korea). Unless stated otherwise, the mice were freely fed a standard diet (Cargill Agri Purina, Inc., Seoul, Republic of Korea). To establish a diet-induced obesity (DIO) model, the mice were fed a HFD (60% fats, Research Diet Co., New Brunswick, N.J.) for 20 weeks. The animals were raised at a controlled temperature (22±1° C.) under a 12-hour light/dark cycle (a light condition from 08:00 a.m. to 8:00 p.m.) For experiments of single administration of NAD+ and NMN, 8-week-old mice were fasted overnight, and NAD+(purchased from Sigma, administered at 0.3, 1 and 3 mg/kg) or NMN (purchased from Sigma, administered at 30, 100, and 300 mg/kg) was intraperitoneally administered to the mice between 09:00 a.m. and 10:00 a.m. For ? chronic NAD+ treatment, NAD+(0.3 mg/kg body weight/day) was intraperitoneally injected once to the mice immediately before the lights went off for 4 weeks.\nAdditionally, an effect of chronic IP injection of NAD+ on the body weight was also examined (FIG. 4). The mice were divided into four groups (a group of ND-fed mice to which saline was IP injected, a group of ND-fed mice to which NAD+ was IP injected, a group of HFD-fed mice to which saline was IP injected, and a group of HFD-fed mice to which NAD+ was IP injected), and NAD+ was intraperitoneally administered to the mice at a dose of 0.3 mg/kg/day once a day for 4 weeks."}, "[2]": {"system": "cultured neuronal cells, astrocytes, and cardiac myocytes", "conditions": "cells treated with NAD+; cited from earlier work"}, "rodents": {"system": "rodents", "conditions": "exogenous NAD+ administration; cited from earlier work"}, "C57BL/6 mice [3]": {"system": "C57BL/6 mice", "test": "Feeding study, single intraperitoneal administration: food intake", "format": "in vivo, mouse", "description": "as §1\n(§2) A predetermined dose of NAD+ or NMN was administered to C57BL/6 mice, which were fasted overnight, during an early light phase (09:00 to 11:00) by using a given method. The same amount of a vehicle (i.e., physiological saline) was administered to the control mice."}, "HFD-fed obese mice [4]": {"system": "HFD-fed obese mice", "test": "Circadian rhythm of feed intake and physical activity (CLAMS) after chronic IP injection", "format": "in vivo, mouse", "conditions": "NAD+ 0.3 mg/kg/day IP 4 weeks, CLAMS 24 hours", "description": "as §1\nThe feed intake and physical activity of mice were measured using a comprehensive laboratory animal monitoring system (CLAMS, Columbus Instruments) (n=4 to 5). The light and feeding conditions were maintained under the same conditions as in a home cage. Water was freely provided during an observation period.\nFurther, an effect of chronic IP injection of NAD+ on the feed intake was verified as follows. To examine a chronic effect of the NAD+ intraperitoneal injection on the feed intake, NAD+(0.3 mg/kg) or saline was administered to the following three groups of mice once a day for 4 weeks: an IP saline-injected group of mice fed the ND, an IP saline-injected group of mice fed the HFD, and an IP NAD+-injected group of mice fed the HFD.\nTo test an effect of habitual IP injection of NAD+(0.3 mg/kg/day) on mobility in an obese animal model, the mice were divided into three groups, that is, an IP saline-injected group of mice fed the ND, an IP saline-injected group of mice fed the HFD, and an IP NAD+-injected group of mice fed the HFD and the mobility thereof was evaluated."}, "C57BL/6 mice [5]": {"system": "C57BL/6 mice", "test": "Feeding study, single intravascular (ICV, third ventricle cannula) administration: food intake and body weight", "format": "in vivo, mouse", "description": "as §1\nPermanent 26-gauge stainless steel cannulae were surgically inserted into the third ventricles of mice (a cannula insertion position: 1.8 mm posterior to bregma and 5.0 mm below the sagittal sinus). For surgery, the mice were anesthetized with a mixture of Zoletil and Rumpun (2:1 v/v, 10 μL/g body weight). The exact cannulation positions of the cannulae were confirmed through a positive dipsogenic response after angiotensin II (50 ng) was administered. Only the mice in which the cannulae were precisely positioned were used for data analyses. After a recovery period of 7 days after the surgery, the mice were daily touched for a predetermined time over a week to minimize a stress response to the experiments. Immediately before administration, NAD+ and NMN were dissolved in 0.9% saline and used. The NAD+ and NMN were dissolved in 2 μL of saline for intravascular administration.\nas §2"}, "C57BL/6 mice [6]": {"system": "C57BL/6 mice", "test": "Oral glucose tolerance test", "format": "in vivo, mouse", "conditions": "NAD+ 0.3, 1, 3 mg/kg single IP 30 minutes before oral glucose 2 g/kg, overnight-fasted normal mice", "description": "For an oral glucose tolerance test, the mice were fasted overnight, 2 g/kg (body weight) of glucose was orally administered (by oral gavage), and blood glucose levels were measured immediately before oral administration (0 minute) and 15, 30, 60, and 120 minutes after the oral administration. 30 minutes prior to glucose administration, NAD+(0.3, 1 and 3 mg/kg) was intraperitoneally administered.\nTo examine an effect of single IP injection of NAD+ on the glucose tolerance, an oral glucose tolerance test was performed on ND-fed C57BL/6 mice that were fasted overnight. A single IP dose of NAD+(0.3, 1 and 3 mg/kg) was administered to the mice, and glucose (2 g/kg) was orally administered thereto after 30 minutes. Thereafter, blood glucose levels were measured at 15, 30, 60, and 120 minutes."}, "[7]": {"system": "diabetic mice fed a high-fat diet", "conditions": "cited from earlier work"}, "[8]": {"conditions": "NR supplementation; cited from earlier work"}, "NQO1": {"target": "NQO1 (Homo sapiens, UniProt P15559)", "sequence (P15559 whole entry, species assumed)": "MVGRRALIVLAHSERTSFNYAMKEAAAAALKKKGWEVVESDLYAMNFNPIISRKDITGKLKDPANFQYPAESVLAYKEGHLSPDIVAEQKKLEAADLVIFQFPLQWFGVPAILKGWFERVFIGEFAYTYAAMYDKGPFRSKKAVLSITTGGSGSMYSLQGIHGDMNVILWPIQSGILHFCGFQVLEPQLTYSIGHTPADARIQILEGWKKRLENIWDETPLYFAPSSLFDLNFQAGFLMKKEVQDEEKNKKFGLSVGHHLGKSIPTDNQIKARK", "conditions": "cited from earlier work"}}, "note": "Entries after “also recorded” stand apart in the source; their conditions may differ."}
{"smiles": "NC(=O)c1ccc[n+]([C@@H]2O[C@H](COP(=O)([O-])OP(=O)(O)OC[C@H]3O[C@@H](n4cnc5c(N)ncnc54)[C@H](O)[C@@H]3O)[C@@H](O)[C@H]2O)c1", "note": "[NAD+, nicotinamide adenine dinucleotide]", "values": [{"measurement": "body weight vs saline-injected group", "setting": "HFD-fed obese mice [1]; HFD-fed obese mice", "result": "significantly reduced; also recorded: significant effect; also recorded: significant decrease"}, {"measurement": "side effects of chronic injection", "setting": "HFD-fed obese mice [1]; NAD+ 0.3 mg/kg/day IP, 4 weeks", "result": "did not cause any notable side effects"}, {"measurement": "body weight vs saline-injected group", "setting": "HFD-fed obese mice [1]; ND-fed normal mice", "result": "did not induce a weight loss; also recorded: not significantly different"}, {"measurement": "apoptosis induced by oxidative stress", "setting": "[2]", "result": "reduced"}, {"measurement": "ischemic brain damage and cardiomegaly", "setting": "rodents", "result": "improves"}, {"measurement": "food intake at 4 hours vs saline", "setting": "C57BL/6 mice [3]; NAD+ 1 mg/kg single IP", "result": "significantly reduced"}, {"measurement": "food intake at 4 hours vs saline", "setting": "C57BL/6 mice [3]; NAD+ 0.3, 1, 3 mg/kg single IP, overnight-fasted mice", "result": "significantly reduced"}, {"measurement": "daytime feed intake", "setting": "HFD-fed obese mice [4]", "result": "significantly reduced"}, {"measurement": "nighttime feed intake", "setting": "HFD-fed obese mice [4]", "result": "did not significantly reduce"}, {"measurement": "food intake frequency", "setting": "HFD-fed obese mice [4]; 0.3 mg/kg/day", "result": "suppressed a high food intake frequency of the obese mice to a normal mouse level; also recorded: significantly reduced"}, {"measurement": "nighttime physical activity (mobility)", "setting": "HFD-fed obese mice [4]; 0.3 mg/kg/day", "result": "remarkably restored"}, {"measurement": "weight gain / body weight for 24 hours vs saline", "setting": "C57BL/6 mice [5]; NAD+ 0.2 pmol single intracerebroventricular (ICV)", "result": "significantly suppressed; also recorded: reduced the body weight; also recorded: significantly reduced level of weight gain"}, {"measurement": "food intake vs saline", "setting": "C57BL/6 mice [5]; NAD+ 0.2, 1, 2 pmol single intracerebroventricular (ICV), overnight-fasted mice, observed for 24 hours, effect maintained at 24 hours", "result": "significantly reduced; also recorded: reduced food intake"}, {"measurement": "time at which decrease in food intake started after administration", "setting": "C57BL/6 mice [5]; NAD+ single intracerebroventricular (ICV)", "result": 2, "unit": "h"}, {"measurement": "blood glucose level at 15 and 30 minutes after glucose administration vs saline", "setting": "C57BL/6 mice [6]", "result": "significantly reduced; also recorded: much lower blood glucose level"}]}
{"smiles": "NC(=O)c1ccc[n+]([C@@H]2O[C@H](COP(=O)([O-])O)[C@@H](O)[C@H]2O)c1", "note": "[NMN, nicotinamide mononucleotide, reference compound]", "values": [{"measurement": "NAD+ level in the liver, adipose tissues, and skeletal muscles", "setting": "[7]; IP NMN, HFD-fed diabetic mice", "result": "successfully increases"}, {"measurement": "glucose tolerance", "setting": "[7]; NMN, diabetic mice", "result": "restores damaged glucose tolerance"}, {"measurement": "food intake at 4 hours vs saline", "setting": "C57BL/6 mice [3]; NMN 300 mg/kg single IP", "result": "significantly reduced level of food intake"}, {"measurement": "food intake at 24 hours vs control", "setting": "C57BL/6 mice [3]; NMN 30, 100, 300 mg/kg single IP", "result": "did not have a reduced food intake; also recorded: not maintained; also recorded: no decrease in food intake"}, {"measurement": "food intake vs saline", "setting": "C57BL/6 mice [5]; NMN 10 pmol single ICV, 24 hours after injection", "result": "reduced; also recorded: much lower level of food intake"}, {"measurement": "change in body weight for 24 hours vs control", "setting": "C57BL/6 mice [5]; NMN 10, 100, 1,000 pmol single ICV", "result": "no significant difference; also recorded: did not cause a change in body weight"}]}
{"smiles": "NC(=O)c1ccc[n+]([C@@H]2O[C@H](CO)[C@@H](O)[C@H]2O)c1", "note": "[NR, nicotinamide riboside]", "values": [{"measurement": "NAD+ level in peripheral tissues such as liver and skeletal muscles", "setting": "[8]", "result": "increases"}, {"measurement": "NAD+ level in the brain", "setting": "[8]", "result": "does not increase"}]}
{"smiles": "CC1(C)CCC2=C(O1)c1ccccc1C(=O)C2=O", "note": "[βL]", "values": [{"measurement": "NAD+, NAD+/NADH, and NADP+/NADPH ratios", "setting": "NQO1", "result": "increase"}]}
